Assay results reported in patent publication US10793514B2, “Glutamine transport inhibitors and methods for treating cancer” (Vanderbilt University, priority 2016, dated 2020).

Legend:
ASCT1 (SLC1A4) = ASCT1 (SLC1A4) (Mus musculus (Mouse), UniProt O35874); experiment: Drug Affinity Responsive Target Stability (DARTS) assay, ASCT1; type: binding; settings: thermolysin
Protocol: DARTS was carried out as previously described^15 using T-REx-293 cells with tetracycline-inducible expression of ASCT2 or lysate from 115 mg of homogenized mouse brain for ASCT1. […] Lysates were then incubated at room temperature with the protease Thermolysin (1:100 and 1:200 total enzyme to total substrate) for 30 min. ASCT2 was measured by immunoblotting (ASCT2 antibody: Millipore ABN73; ASCT1 antibody: Cell Signaling 8442).

HCC1806 cells [1] = experiment: Immunoblot of pS6 and pERK in HCC1806 cells; type: cell-based, human; settings: 25 μM, 48 hrs
Protocol: For immunoreactivity studies, tissue samples were diluted to 100 mg/mL in lysis buffer (#7018s, Cell Signaling Technology) and subsequently homogenized, sonicated, and spun at 3.5K RPM for 1 min. Lysate samples were then screened against an array of target-specific capture antibodies using PathScan Intracellular Signaling Array Kits (#7323, Cell Signaling Technology) in accordance with the manufacturer's instructions and developed using HyBlot CL autoradiography film (# e3012, Denville Scientific Inc.). Processed films were digitized using an Epson Perfection V600 Photo scanner and the relative pixel intensities for each blot quantified using the image processing software ImageJ. Complementary western blot studies were performed by loading 20-40 μg of protein into 7.5-12% SDS PAGE gels, […]. Membranes were blocked overnight at 4° C. in trisbuffered saline 0.1% Tween-20 (TBST) containing 5% w/v nonfat dry milk powder and subsequently incubated with antibodies to p-ERK 1/2 Thr202/Tyr204 (Cell Signaling, 4370), pS6 (Cell Signaling, #4858) LC3B, (anti LC3B, Cell signaling 2775), or b-tubulin (Novus Biologicals, NB600-936); Membrane chemiluminescence was imaged on a Xenogen IVIS 200 system.

[2] = system: pERK in HCC1806 and HT29 cells; experiment: AlphaScreen SureFire pERK assay; type: cell-based, human; settings: 48 h
Protocol: Detection of activated ERK in cell lysates was enabled by the AlphaScreen SureFire ERK assay (Perkin Elmer) according to the manufacturers protocol. Cells were plated in 96-well plates for 24 hours prior to the assay.

HCC1806 cells [3] = experiment: Glutathione and reactive oxygen species in HCC1806 cells; type: cell-based, human
Protocol: (§1) Glutathione levels were measured using a commercially available kit (Cayman Chemical 703002) according to the manufacturers protocol. Concurrently ROS was measured in cells using CM-H2DCFDA (Life Technologies C6827) coupled with flow cytometry in accordance with the manufacturers protocol. The assay was replicated replicated at least three times, technically and biologically. Significance was calculated using a t-test in Graphpad Prism. Error is reported as standard deviation (SD).

HT29 cells = experiment: Glutathione and reactive oxygen species in HT29 cells; type: cell-based, human; settings: 48 h
Protocol: as §1

HCC1806 cells [4] = experiment: LC3B immunofluorescence; type: cell-based, human; settings: 25 μM, 48 hrs
Protocol: Following treatment, cells were fixed with 70% methanol for 5-10 min. LC3B was visualized with 1:100 primary antibody (anti LC3B, Cell signaling 2775) at 37° C. for 45 min followed by application of 1:600 secondary antibody (Rhodamine Red, Invitrogen R6394) at 37° C. for 30 min and DAPI for 4 min. Images were acquired with a fluorescence microscope at visualized at 40× magnification.

HCC1806 and HT29 cells = experiment: Autophagic flux (CYTO-ID); type: cell-based, human
Protocol: Autophagic flux was measure using the CYTO-ID autophagy detection kit (Enzo Life Sciences ENZ-51031). HCC1806 and HT29 cells were seeded in 96 well plates the day before the experiment. […] Following treatment, cells were gently washed with assay buffer followed by addition of the dual color detection solution and incubation at 37° C. for 30 min. The plate was analyzed on a fluorescence microplane reader (BioTek Synergy 4).

[5] = system: human CRC organoids A-007 and A-008; experiment: Human CRC organoid viability assay; type: cell-based; settings: V-9302 25 μM or CB-839 35 μM, 96 h
Protocol: Human CRC-derived organoids were prepared as reported method with modification^41. Briefly, specimens from freshly resected tumors were minced and digested with 2 mg/ml type 2 collagenase (Worthington, N.J., USA). Samples were passed through 40 µm filters (Greiner Bio One, NC, USA) and epithelial cells trapped on the filters were embed in Matrigel (Corning, MA, USA) and cultured with advanced DMEM/F12 supplemented with N2 and B27 supplements (Thermo Fischer, MA, USA), 50 ng/ml rhEGF (R&D systems, MN, USA) and 1% antibiotic-antimycotic (Corning). For viability assay, organoids were dissociated by TrypLE express (Thermo Fischer) and suspended in Matrigel. […] After 4 days of culture, images of the organoids in Matrigel were captured and the number of viable cells were quantified with CellTiter Aqueous One Cell Proliferation Assay kit (Promega, WI, USA) and a Synergy 4 plate reader (BioTek, VT, USA). The assay was replicated at least three times, technically and biologically. Significance was calculated using a t-test in Graphpad Prism. Error is reported as standard deviation (SD).

[6] = system: HT29 (BRAF V600E) cell-line xenografts; experiment: HT29 xenograft chronic exposure study; type: in vivo, mouse; settings: 75 mg/kg per day, 21 days
Protocol: Tissues were sectioned (5 μm thickness) and stained for pS6 (Cell Signaling, #4858) and caspase 3 (Cell Signaling #9661). Tissue slides were imaged at 20× magnification.
(§2) For in vivo studies, cell-line xenograft tumors were propagated in 6-week old, female athymic nude mice from immortalized cell lines. For HCC-1806 (10×10^6 cells), HCT-116 (5×10^6), and HT29 (10×10^6) cells were injected. Palpable tumors were typically visible within 2-3 weeks. For imaging studies (HCC-1806), tumors were propagated to approximately 500 mm^3. For treatment studies (HCT-116, HT29) tumors were propagated to approximately 200 mm^3 prior to therapy and were randomly assigned into treated and untreated cohorts. For generating the PDX, primary tumor tissue was obtained form a patient at Vanderbilt University Medical Center under an IRB approved protocol. The tumor tissue was genotyped within the VANTAGE core facility. Xenograft was generated as previously described 41. Briefly, tumor tissues were sectioned into approximately 125 cubic millimeter pieces then implanted subcutaneously without further manipulation. […] Tumor volumes were measured manually using calipers every third day and quantified using the formula V=W·L·(H/2).

[7] = system: patient-derived xenograft (PDX) tumor A-008; experiment: Patient-derived xenograft chronic exposure study; type: in vivo, mouse; settings: 75 mg/kg daily, 31 days; vs vehicle
Protocol: as §2

ASCT1 (SLC1A4), sequence (O35874 whole entry): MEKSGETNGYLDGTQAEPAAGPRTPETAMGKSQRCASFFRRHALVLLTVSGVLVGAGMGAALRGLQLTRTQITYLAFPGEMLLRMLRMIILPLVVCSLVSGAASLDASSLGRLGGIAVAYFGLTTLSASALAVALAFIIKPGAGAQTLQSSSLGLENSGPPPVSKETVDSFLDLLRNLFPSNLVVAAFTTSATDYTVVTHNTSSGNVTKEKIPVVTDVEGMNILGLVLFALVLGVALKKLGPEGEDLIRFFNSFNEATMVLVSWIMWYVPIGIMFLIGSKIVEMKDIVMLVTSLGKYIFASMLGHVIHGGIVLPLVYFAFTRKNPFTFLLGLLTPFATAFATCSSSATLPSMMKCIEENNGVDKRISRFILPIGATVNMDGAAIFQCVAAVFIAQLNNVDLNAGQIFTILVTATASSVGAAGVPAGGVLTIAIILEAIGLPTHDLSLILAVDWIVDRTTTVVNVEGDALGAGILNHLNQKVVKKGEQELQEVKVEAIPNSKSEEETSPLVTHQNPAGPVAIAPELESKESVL

stabilization of ASCT1 (ASCT1 (SLC1A4)): not stabilized
Compound: Cc1cccc(COc2ccccc2CN(CCC(N)C(=O)O)Cc2ccccc2OCc2cccc(C)c2)c1 (stereo not drawn) [Compound V-9302]
pERK (HCC1806 cells [1]): modest decrease in pERK
pS6 (HCC1806 cells [1]): significantly decreased pS6
pERK (independent biochemical assay) [2]: statistically significant, concentration-dependent decrease in pERK
intracellular reactive oxygen species (ROS) (HCC1806 cells [3]): corresponding increase in intracellular reactive oxygen species (ROS)
oxidized (GSSG) and reduced (GSH) glutathione (HCC1806 cells [3]): increased levels of oxidized glutathione (GSSG) at the expense of reduced glutathione (GSH)
GSSG levels and ROS (HT29 cells): elevated GSSG levels and ROS
LC3B, marker of autophagy (HCC1806 cells [4]): elevated LC3B
number of autophagic vesicles (HCC1806 and HT29 cells; HT29 cells, combined with chloroquine (10 μM)): further increased the number of autophagic vesicles
autophagic flux (HCC1806 and HT29 cells; single agent): elevated with V-9302 exposure in a concentration-dependent manner
organoid viability [5]: significantly reduced
cleaved caspase 3 in tumor tissue ([6]; IHC): elevated levels of cleaved caspase 3
pS6 in tumor tissue ([6]; IHC): significantly decreased pS6
tumor growth ([6]; vs vehicle): prevented tumor growth
tumor volume [7]: reduction in tumor volume
